Reference: the NIST ThermoML archive (doi:10.1016/j.jct.2006.02.001)
± gives the expanded uncertainty stated by the source.

Key:
[1] = xn = mol fraction of the nth substance listed; settings: 101 kPa, Liquid
[2] = refractive index (Na D-line) (dimensionless); xn = mol fraction of the nth substance listed; settings: 101 kPa, Liquid

COc1ccccc1 [anisole] + Cc1ccccc1C
Settings | mass density, 288.15 K [kg/m3] | mass density, 293.15 K [kg/m3] | mass density, 298.15 K [kg/m3] | mass density, 303.15 K [kg/m3] | refractive index, 288.15 K | refractive index, 293.15 K | refractive index, 298.15 K | refractive index, 303.15 K
[1], x1 = 0.0984 | 894.18 ± 0.86 | 890.01 ± 0.88 | 886.52 ± 0.89 | 881.84 ± 0.91 | – | – | – | –
[1], x1 = 0.2473 | 910.8 ± 0.8 | 906.56 ± 0.81 | 902.92 ± 0.83 | 898.24 ± 0.84 | – | – | – | –
[1], x1 = 0.376 | 925.35 ± 0.74 | 921 ± 0.76 | 917.17 ± 0.77 | 912.46 ± 0.79 | – | – | – | –
[1], x1 = 0.4951 | 939.01 ± 0.69 | 934.55 ± 0.7 | 930.58 ± 0.72 | 925.89 ± 0.74 | – | – | – | –
[1], x1 = 0.6454 | 956.51 ± 0.61 | 951.98 ± 0.63 | 947.89 ± 0.65 | 943.26 ± 0.67 | – | – | – | –
[1], x1 = 0.7463 | 968.37 ± 0.57 | 963.81 ± 0.58 | 959.66 ± 0.6 | 955.11 ± 0.62 | – | – | – | –
[1], x1 = 0.864 | 982.31 ± 0.51 | 977.72 ± 0.53 | 973.49 ± 0.54 | 968.92 ± 0.56 | – | – | – | –
[1], x1 = 0.938 | 991.11 ± 0.47 | 986.44 ± 0.49 | 982.08 ± 0.51 | 977.48 ± 0.53 | – | – | – | –
[1], x1 = 0.9745 | 995.42 ± 0.46 | 990.69 ± 0.48 | 986.24 ± 0.49 | 981.57 ± 0.51 | – | – | – | –
[1], x1 = 1 | 998.44 ± 0.45 | 993.65 ± 0.46 | 989.15 ± 0.48 | 984.37 ± 0.5 | – | – | – | –
[2], x1 = 0.0984 | – | – | – | – | 1.5091 ± 0.0096 | 1.5061 ± 0.0096 | 1.5033 ± 0.0096 | 1.5015 ± 0.0096
[2], x1 = 0.2473 | – | – | – | – | 1.5118 ± 0.0096 | 1.508 ± 0.0096 | 1.5052 ± 0.0096 | 1.5027 ± 0.0096
[2], x1 = 0.376 | – | – | – | – | 1.5141 ± 0.0096 | 1.5095 ± 0.0096 | 1.5067 ± 0.0096 | 1.5048 ± 0.0096
[2], x1 = 0.4951 | – | – | – | – | 1.516 ± 0.0097 | 1.5107 ± 0.0096 | 1.5079 ± 0.0096 | 1.5059 ± 0.0096
[2], x1 = 0.6454 | – | – | – | – | 1.5193 ± 0.0097 | 1.5128 ± 0.0096 | 1.51 ± 0.0096 | 1.508 ± 0.0096
[2], x1 = 0.7463 | – | – | – | – | 1.521 ± 0.0097 | 1.5145 ± 0.0096 | 1.5117 ± 0.0096 | 1.5096 ± 0.0096
[2], x1 = 0.864 | – | – | – | – | 1.5232 ± 0.0097 | 1.5156 ± 0.0097 | 1.5128 ± 0.0096 | 1.5107 ± 0.0096
[2], x1 = 0.938 | – | – | – | – | 1.5245 ± 0.0097 | 1.5164 ± 0.0097 | 1.5136 ± 0.0096 | 1.5114 ± 0.0096
[2], x1 = 0.9745 | – | – | – | – | 1.5252 ± 0.0097 | 1.5167 ± 0.0097 | 1.5139 ± 0.0096 | 1.5116 ± 0.0096
[2], x1 = 1 | – | – | – | – | 1.5256 ± 0.0098 | 1.5169 ± 0.0097 | 1.5141 ± 0.0096 | 1.5117 ± 0.0096

COc1ccccc1 [anisole] + c1ccccc1
Settings | mass density, 288.15 K [kg/m3] | mass density, 293.15 K [kg/m3] | mass density, 298.15 K [kg/m3] | mass density, 303.15 K [kg/m3] | refractive index, 288.15 K | refractive index, 293.15 K | refractive index, 298.15 K | refractive index, 303.15 K
[1], x1 = 0.105 | 898.53 ± 3 | 891.31 ± 3.1 | 888.2 ± 3.1 | 882.91 ± 3.2 | – | – | – | –
[1], x1 = 0.201 | 911.14 ± 2.8 | 904.23 ± 2.9 | 900.97 ± 2.9 | 895.75 ± 3 | – | – | – | –
[1], x1 = 0.3173 | 925.73 ± 2.5 | 919.17 ± 2.6 | 915.76 ± 2.7 | 910.6 ± 2.8 | – | – | – | –
[1], x1 = 0.4192 | 937.94 ± 2.4 | 931.66 ± 2.5 | 928.1 ± 2.5 | 923 ± 2.6 | – | – | – | –
[1], x1 = 0.5126 | 948.66 ± 2.2 | 942.64 ± 2.3 | 938.93 ± 2.3 | 933.89 ± 2.4 | – | – | – | –
[1], x1 = 0.6139 | 959.83 ± 2 | 954.08 ± 2.1 | 950.21 ± 2.2 | 945.24 ± 2.2 | – | – | – | –
[1], x1 = 0.7067 | 969.67 ± 1.9 | 964.17 ± 1.9 | 960.12 ± 2 | 955.22 ± 2.1 | – | – | – | –
[1], x1 = 0.797 | 978.88 ± 1.7 | 973.61 ± 1.8 | 969.41 ± 1.9 | 964.57 ± 1.9 | – | – | – | –
[1], x1 = 0.9002 | 989.01 ± 1.6 | 983.99 ± 1.6 | 979.62 ± 1.7 | 974.85 ± 1.8 | – | – | – | –
[1], x1 = 1 | 998.44 ± 1.4 | 993.65 ± 1.5 | 989.15 ± 1.6 | 984.37 ± 1.6 | – | – | – | –
[2], x1 = 0.105 | – | – | – | – | 1.5076 ± 0.0096 | 1.5032 ± 0.0096 | 1.5001 ± 0.0097 | 1.4884 ± 0.0099
[2], x1 = 0.201 | – | – | – | – | 1.51 ± 0.0096 | 1.5051 ± 0.0096 | 1.5019 ± 0.0097 | 1.4914 ± 0.0098
[2], x1 = 0.3173 | – | – | – | – | 1.5127 ± 0.0097 | 1.5072 ± 0.0096 | 1.5041 ± 0.0097 | 1.4949 ± 0.0098
[2], x1 = 0.4192 | – | – | – | – | 1.5149 ± 0.0097 | 1.509 ± 0.0096 | 1.5058 ± 0.0097 | 1.4978 ± 0.0097
[2], x1 = 0.5126 | – | – | – | – | 1.5168 ± 0.0097 | 1.5105 ± 0.0096 | 1.5074 ± 0.0097 | 1.5003 ± 0.0097
[2], x1 = 0.6139 | – | – | – | – | 1.5188 ± 0.0097 | 1.5121 ± 0.0097 | 1.5089 ± 0.0096 | 1.5029 ± 0.0097
[2], x1 = 0.7067 | – | – | – | – | 1.5206 ± 0.0097 | 1.5134 ± 0.0097 | 1.5103 ± 0.0096 | 1.5052 ± 0.0097
[2], x1 = 0.797 | – | – | – | – | 1.5222 ± 0.0097 | 1.5147 ± 0.0097 | 1.5115 ± 0.0096 | 1.5073 ± 0.0096
[2], x1 = 0.9002 | – | – | – | – | 1.524 ± 0.0097 | 1.516 ± 0.0097 | 1.5129 ± 0.0096 | 1.5096 ± 0.0096
[2], x1 = 1 | – | – | – | – | 1.5256 ± 0.0097 | 1.5172 ± 0.0097 | 1.5141 ± 0.0096 | 1.5117 ± 0.0096

c1ccccc1 [benzene] + COc1ccccc1
x2 = 0
Settings | mass density, 288.15 K [kg/m3] | mass density, 293.15 K [kg/m3] | mass density, 298.15 K [kg/m3] | mass density, 303.15 K [kg/m3] | refractive index, 288.15 K | refractive index, 293.15 K | refractive index, 298.15 K | refractive index, 303.15 K
[1] | 884.11 ± 3.2 | 876.53 ± 3.3 | 873.6 ± 3.4 | 868.23 ± 3.5 | – | – | – | –
[2] | – | – | – | – | 1.505 ± 0.0096 | 1.5011 ± 0.0096 | 1.4979 ± 0.0097 | 1.4849 ± 0.0099

Cc1ccccc1 [toluene] + COc1ccccc1
x2 = 0
Settings | mass density, 288.15 K [kg/m3] | mass density, 293.15 K [kg/m3] | mass density, 298.15 K [kg/m3] | mass density, 303.15 K [kg/m3] | refractive index, 288.15 K | refractive index, 293.15 K | refractive index, 298.15 K | refractive index, 303.15 K
[1] | 871.41 ± 0.84 | 866.87 ± 0.86 | 862.2 ± 0.88 | 857.46 ± 0.9 | – | – | – | –
[2] | – | – | – | – | 1.4996 ± 0.0096 | 1.497 ± 0.0096 | 1.4944 ± 0.0096 | 1.4918 ± 0.0096
